Measured values as given in ChEMBL document CHEMBL4043289, “Fragment-Based Drug Discovery of Inhibitors of Phosphopantetheine Adenylyltransferase from Gram-Negative Bacteria” (J Med Chem, 2018).
Values after ≈ are worked out from the molar mass of the structure shown. Active and inactive are the calls of the source. The rule behind the calls is not given here.

Assays:
[1] = Inhibition of Escherichia coli C-terminal His-tagged PPAT expressed in Escherichia coli using 4'-phosphopantetheine as substrate preincubated for 5 mins followed by substrate and pyrophosphatase addition measured after 30 mins by malachite green reagent-based colorimetric method
[2] = Inhibition of Pseudomonas aeruginosa C-terminal His-tagged PPAT expressed in Escherichia coli using 4'-phosphopantetheine as substrate preincubated for 5 mins followed by substrate and pyrophosphatase addition measured after 30 mins by malachite green reagent-based colorimetric method
Escherichia coli [3] = assay: Inhibition of Escherichia coli C-terminal His-tagged PPAT V135I mutant using 4'-phosphopantetheine as substrate preincubated for 20 mins followed by substrate and pyrophosphatase addition by malachite green reagent-based assay
Escherichia coli [4] = assay: Inhibition of Escherichia coli C-terminal His-tagged PPAT H138L mutant using 4'-phosphopantetheine as substrate preincubated for 20 mins followed by substrate and pyrophosphatase addition by malachite green reagent-based assay
Escherichia coli [5] = assay: Selectivity ratio of IC50 for Escherichia coli C-terminal His-tagged PPAT M74L mutant to IC50 for Escherichia coli C-terminal His-tagged PPAT
[6] = Solubility of the compound; type: physicochemical
Escherichia coli [7] = assay: Antibacterial activity against Escherichia coli ATCC 25922 after 20 hrs by broth microdilution method; type: functional
[8] = Inhibition of Staphylococcus aureus C-terminal His-tagged PPAT expressed in Escherichia coli using 4'-phosphopantetheine as substrate preincubated for 5 mins followed by substrate and pyrophosphatase addition measured after 30 mins by malachite green reagent-based colorimetric method
Escherichia coli [9] = assay: (§1) Binding affinity to Escherichia coli PPAT by SPR method
[10] = as §1
[11] = Lipophilicity, log D of the compound at pH 7.4; type: physicochemical; settings: buffer
Escherichia coli [12] = assay: Antibacterial activity against tolC deficient Escherichia coli BW25113 after 20 hrs by broth microdilution method; type: functional; settings: for MIC: BW25113, 20 h
[13] = target: T1, Bifunctional coenzyme A synthase (Homo sapiens) (UniProt Q13057); assay: Inhibition of human PPAT up to 500 uM
T1 sequence (whole entry): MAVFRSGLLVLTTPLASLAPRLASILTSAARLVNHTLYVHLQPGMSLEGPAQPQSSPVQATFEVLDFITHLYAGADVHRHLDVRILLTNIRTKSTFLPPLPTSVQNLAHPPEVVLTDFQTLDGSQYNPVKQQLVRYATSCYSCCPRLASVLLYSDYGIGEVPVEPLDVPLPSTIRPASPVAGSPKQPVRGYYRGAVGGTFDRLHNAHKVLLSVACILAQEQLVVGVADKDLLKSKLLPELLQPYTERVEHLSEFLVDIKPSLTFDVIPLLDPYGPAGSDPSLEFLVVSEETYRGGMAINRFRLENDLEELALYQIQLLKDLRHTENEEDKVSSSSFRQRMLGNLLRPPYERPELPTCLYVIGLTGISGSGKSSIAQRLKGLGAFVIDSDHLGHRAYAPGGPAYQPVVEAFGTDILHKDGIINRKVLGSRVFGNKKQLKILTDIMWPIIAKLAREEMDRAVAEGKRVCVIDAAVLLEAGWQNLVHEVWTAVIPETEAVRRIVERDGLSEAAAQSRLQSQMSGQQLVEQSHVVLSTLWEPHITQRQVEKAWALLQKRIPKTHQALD

[14] = Dissociation rate constant to Escherichia coli PPAT by SPR method
[15] = Inhibition of Escherichia coli C-terminal His-tagged PPAT expressed in Escherichia coli using 10 times 4'-phosphopantetheine as substrate preincubated for 5 mins followed by substrate and pyrophosphatase addition measured after 30 mins by malachite green reagent-based colorimetric method
Escherichia coli [16] = assay: Ratio of IC50 for Escherichia coli C-terminal His-tagged PPAT expressed in Escherichia coli using 10 times 4'-phosphopantetheine as substrate to IC50 for Escherichia coli C-terminal His-tagged PPAT expressed in Escherichia coli using 4'-phosphopantetheine as substrate
Escherichia coli [17] = assay: Binding affinity to Escherichia coli C-terminal His-tagged PPAT expressed in Escherichia coli assessed as change in melting temperature by SYPRO orange dye-based DSF method
[18] = target: T2, Bifunctional coenzyme A synthase (Homo sapiens, UniProt Q13057); assay: Inhibition of human PPAT
T2 sequence (Q13057 whole entry): T1 sequence (whole entry)

[19] = Selectivity ratio of IC50 for human PPAT to IC50 for Escherichia coli C-terminal His-tagged PPAT
Escherichia coli [20] = assay: Inhibition of Escherichia coli C-terminal His-tagged PPAT expressed in Escherichia coli up to 500 uM using 4'-phosphopantetheine as substrate preincubated for 5 mins followed by substrate and pyrophosphatase addition measured after 30 mins by malachite green reagent-based colorimetric method

Cc1cc(=O)n2nc(N[C@@H](C)c3ccccc3)nc2[nH]1
IC50 [1]: 120 µM

Cc1[nH]c2nc(N[C@H](C)c3cccc(Cl)c3)nn2c(=O)c1C
IC50 [1]: 1.1 µM | IC50 [2]: 1.7 µM

CC(C)CNC(=O)[C@@H](Cc1cnc[nH]1)NC(=O)[C@H](CCC(=O)O)NC(=O)OC1c2ccccc2-c2ccccc21
inhibition (Escherichia coli [3]): Active | inhibition (Escherichia coli [4]): Active | Ratio IC50 (Escherichia coli [5]): 25

Oc1cccc2[nH]c(Cc3noc4ccccc34)nc12
IC50 [1]: 1 µM | IC50 [2]: 2.7 µM

Cc1cc(=O)n2nc(N[C@H](CC#N)c3cccc(Cl)c3)nc2[nH]1
solubility [6]: > 300 µg/mL | Activity (Escherichia coli [7]): inactive | IC50 [8]: > 500 µM | IC50 [1]: 0.037 µM | Ka (Escherichia coli [9]): 23 ×10⁵ /M/s | Kd [10]: 0.009 µM | logD [11]: 1.2 | MIC (Escherichia coli [12]): 16 µg/mL (≈ 48.7 µM) | inhibition [13]: inactive | koff [14]: 0.021 s⁻¹ | IC50 [2]: 0.049 µM

Cc1cc(=O)n2nc(NCc3cccc(Cl)c3)nc2[nH]1
IC50 [15]: 43 µM | IC50 [1]: 7.6 µM | Ratio IC50 (Escherichia coli [16]): 5.7

CNC(=O)CC(Nc1nc2[nH]c(C)cc(=O)n2n1)c1cccc(Cl)c1 (centres undefined)
IC50 [1]: 15 µM | IC50 [2]: 10 µM

NC1=NC(c2cccc(F)c2)n2c(nc3ccccc32)N1 (centres undefined)
IC50 [1]: 69 µM | ΔTm (Escherichia coli [17]): 3.4 °C

Nc1ncnc2ncn(Cc3cccc(Cl)c3)c12
IC50 [1]: 264 µM | ΔTm (Escherichia coli [17]): 2.7 °C

CC(C)(C)Nc1ccc2nnc(C(F)(F)F)n2n1
IC50 [1]: > 2500 µM | ΔTm (Escherichia coli [17]): 2.5 °C

Cc1cc(=O)n2nc(NC(C)c3cccc(Cl)c3)nc2[nH]1 (racemic)
IC50 [15]: 3.2 µM | IC50 [1]: 0.76 µM | Ratio IC50 (Escherichia coli [16]): 4.2 | IC50 [2]: 1.4 µM

O=C(NCCCCCNC(=O)c1ccco1)c1ccco1
IC50 [1]: 237 µM | ΔTm (Escherichia coli [17]): 2.9 °C

Cc1ccn2nc(N[C@H](C)c3cccc(Cl)c3)nc2n1
IC50 [1]: 4.7 µM | IC50 [2]: 2.6 µM

c1ccc(Cn2cnc3ncccc32)cc1
IC50 [1]: 273 µM | ΔTm (Escherichia coli [17]): 2.3 °C

Cc1nc2ccccc2n1Cc1nc2c(O)cccc2[nH]1
IC50 [1]: 23 µM | IC50 [2]: 0.13 µM

OCc1nc2c(O)cccc2[nH]1
IC50 [1]: 116 µM | IC50 [2]: 108 µM

CC1(C)OC(=O)c2ccccc2[C@H]1n1cncc1C(F)F
IC50 [1]: 163 µM | ΔTm (Escherichia coli [17]): 3.8 °C

Cc1[nH]c2nc(NCc3ccccc3F)nn2c(=O)c1C
IC50 [1]: 31 µM | ΔTm (Escherichia coli [17]): 2.5 °C

Cc1ccc2oc(N[C@H](C)c3cccc(Cl)c3)nc2n1
IC50 [1]: 2.4 µM | IC50 [2]: 4.9 µM

Cc1cc(=O)n2nc(N[C@H](C)c3cccc(Cl)c3)nc2[nH]1
solubility [6]: 68 µg/mL (≈ 224 µM) | IC50 [15]: 0.92 µM | IC50 [1]: 0.25 µM | Ratio IC50 (Escherichia coli [16]): 3.7 | Ka (Escherichia coli [9]): 0.16 ×10⁵ /M/s | Kd [10]: 0.17 µM | logD [11]: 1.1 | koff [14]: 0.0028 s⁻¹ | IC50 [2]: 0.97 µM

COCC[C@@H](Nc1nc2[nH]c(C)cc(=O)n2n1)c1cccc(Cl)c1
IC50 [1]: 2.4 µM | IC50 [2]: 11 µM

Oc1cccc2[nH]c(C3CCCN3c3cccc(Cl)c3)nc12 (centres undefined)
IC50 [1]: 0.91 µM | IC50 [2]: 34 µM

Cc1cc(=O)n2nc(N[C@H](CO)c3cccc(Cl)c3)nc2[nH]1
IC50 [1]: 0.55 µM | IC50 [2]: 0.66 µM

CN1C(=O)CCC(c2nc3c(O)cccc3[nH]2)C1c1ccccc1 (centres undefined)
IC50 [1]: 0.32 µM | IC50 [2]: 25 µM

C[C@@H](Nc1nc2c(O)cccc2[nH]1)c1cccc(Cl)c1
IC50 [18]: 11 µM | IC50 [1]: 1.2 µM | IC50 [2]: 15 µM | Ratio IC50 [19]: 9

Cc1cc(=O)n2nc(NC(CC(=O)O)c3cccc(Cl)c3)nc2[nH]1 (centres undefined)
IC50 [1]: 0.2 µM | IC50 [2]: 1.1 µM

Cc1ccc2c(ncn2Cc2cccc(Cl)c2)n1
IC50 [1]: 4.3 µM

Cc1cc(=O)n2nc(NC(CC(N)=O)c3cccc(Cl)c3)nc2[nH]1 (centres undefined)
IC50 [1]: 0.45 µM | IC50 [2]: 0.83 µM

Cc1cc(N)n2nc(N[C@H](C)c3cccc(Cl)c3)nc2n1
IC50 [1]: 0.41 µM | IC50 [2]: 0.38 µM

COc1ccc2c(c1)C(C)(C)C1CC2CN(C(C)=O)C1 (centres undefined)
IC50 [1]: 37 µM | ΔTm (Escherichia coli [17]): 5.1 °C

C[C@@H](Nc1ccc2[nH]cnc2n1)c1cccc(Cl)c1
IC50 [1]: 401 µM | IC50 [2]: > 500 µM

CC(C)(CO)[C@@H](O)C(=O)NCCc1nc2c(O)cccc2[nH]1
Activity (Escherichia coli [7]): inactive | IC50 [1]: 30 µM | Activity (Escherichia coli [12]): inactive | IC50 [2]: 114 µM

CCCCCNC(=O)CCNC(=O)[C@H](O)C(C)(C)CO
MIC (Escherichia coli [7]; ATCC 25922, 20 h): 64 µg/mL (≈ 222 µM) | inhibition (Escherichia coli [20]): inactive | MIC (Escherichia coli [12]): 16 µg/mL (≈ 55.5 µM)

Cc1ccc2sc(N[C@H](C)c3cccc(Cl)c3)nc2n1
IC50 [1]: 0.41 µM | IC50 [2]: 2.3 µM

Cc1ccc2c(ncn2Cc2ccccc2)n1
IC50 [1]: 19 µM

Oc1cccc2[nH]c(CCc3cccc(Cl)c3)nc12
IC50 [1]: 0.25 µM | MIC (Escherichia coli [12]): 32 µg/mL (≈ 117 µM) | IC50 [2]: 4.6 µM

Cc1cc(=O)n2nc(NCc3cccc(Br)c3)nc2[nH]1
IC50 [1]: 5.6 µM

COC(=O)CC(Nc1nc2[nH]c(C)cc(=O)n2n1)c1cccc(Cl)c1 (centres undefined)
IC50 [1]: 2.5 µM | IC50 [2]: 0.49 µM

NCc1ccc2ccnc(N)c2c1
IC50 [1]: 1080 µM

Cc1cc(=O)n2nc(N[C@H](CCO)c3cccc(Cl)c3)nc2[nH]1
IC50 [15]: 0.44 µM | IC50 [1]: 0.24 µM | Ratio IC50 (Escherichia coli [16]): 1.8 | IC50 [2]: 2 µM

O=C(O)c1cccc([C@H]2CCC[C@@H]2c2nc3c(O)cccc3[nH]2)c1 (relative stereo)
IC50 [1]: 0.051 µM | IC50 [2]: 25 µM

Cc1ccc2[nH]c(N[C@H](CC#N)c3cccc(Cl)c3)nc2n1
Activity (Escherichia coli [7]): inactive | IC50 [1]: 0.056 µM | Ka (Escherichia coli [9]): 13 ×10⁵ /M/s | Kd [10]: 0.01 µM | logD [11]: 3.3 | MIC (Escherichia coli [12]): 4 µg/mL (≈ 12.8 µM) | koff [14]: 0.013 s⁻¹ | IC50 [2]: 0.064 µM

Cc1cc(=O)n2nc(N[C@H](COC(N)=O)c3cccc(Cl)c3)nc2[nH]1
IC50 [1]: 0.25 µM | IC50 [2]: 3.9 µM

Cc1nc(N)n2nc(N[C@H](C)c3cccc(Cl)c3)nc2n1
IC50 [1]: 5.9 µM | IC50 [2]: 4.6 µM

Oc1cccc2[nH]c([C@H]3CCC[C@@H]3c3cccc(Cl)c3)nc12 (relative stereo)
IC50 [1]: 0.051 µM | Ka (Escherichia coli [9]): 1.96 ×10⁵ /M/s | Kd [10]: 0.038 µM | koff [14]: 0.0071 s⁻¹ | IC50 [2]: 1.6 µM

Oc1cccc2[nH]c(COc3cccc(Cl)c3)nc12
IC50 [1]: 1.7 µM | IC50 [2]: 14 µM

Cc1cc(=O)n2nc(N[C@H](C)c3ccccc3)nc2[nH]1
IC50 [1]: 6.4 µM

C[C@@H](Nc1ccc2nccnc2n1)c1cccc(Cl)c1
IC50 [1]: 348 µM | IC50 [2]: 271 µM

CC(=O)N1CCC[C@H]1c1nc2c(O)cccc2[nH]1
IC50 [1]: 106 µM | IC50 [2]: 1.9 µM

Cc1cc(C)nc(NS(=O)(=O)c2ccc(N)cc2C)n1
IC50 [1]: 74 µM | ΔTm (Escherichia coli [17]): 8.7 °C

Cc1cc(=O)n2nc(NCc3ccccc3)nc2[nH]1
IC50 [1]: 77 µM

COc1ccc2[nH]cc(CCNC(=O)C(C)(C)C)c2c1
IC50 [1]: 199 µM | ΔTm (Escherichia coli [17]): 3.1 °C

Oc1cccc2[nH]c(C(F)(F)F)nc12
IC50 [1]: 230 µM | IC50 [2]: > 500 µM | ΔTm (Escherichia coli [17]): 8.1 °C

CCc1cc(=O)n2nc(N[C@H](C)c3cccc(Cl)c3)nc2[nH]1
IC50 [1]: 0.9 µM | IC50 [2]: 2.8 µM

CN1C(=O)C[C@H](c2nc3c(O)cccc3[nH]2)[C@H]1c1ccccc1 (relative stereo)
IC50 [1]: 1 µM | IC50 [2]: 11 µM

Cc1ccc2[nH]c(N[C@H](C)c3cccc(Cl)c3)nc2n1
IC50 [1]: 0.19 µM | logD [11]: 3.3 | IC50 [2]: 0.61 µM
